Target: Substance-P receptor (Homo sapiens, UniProt P25103)
Test: Ability to displace [125I]-substance P from hNK1 receptor in chinese hamster ovarian (CHO) cells
Type: cell-based

Sequence of Substance-P receptor (P25103 whole entry): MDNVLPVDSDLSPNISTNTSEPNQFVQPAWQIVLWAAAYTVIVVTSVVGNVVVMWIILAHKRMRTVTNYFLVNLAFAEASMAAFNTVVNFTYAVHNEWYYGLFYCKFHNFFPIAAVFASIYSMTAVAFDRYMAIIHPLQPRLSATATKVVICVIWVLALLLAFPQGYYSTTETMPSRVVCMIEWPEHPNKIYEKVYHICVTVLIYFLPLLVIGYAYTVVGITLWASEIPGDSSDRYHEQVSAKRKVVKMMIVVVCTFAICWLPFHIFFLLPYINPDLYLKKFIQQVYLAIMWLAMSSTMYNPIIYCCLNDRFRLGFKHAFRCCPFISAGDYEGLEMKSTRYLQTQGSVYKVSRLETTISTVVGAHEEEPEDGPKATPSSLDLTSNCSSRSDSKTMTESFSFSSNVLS

Row | IC50 [nM] | Structure (SMILES)
1 | 1300 | CS(=O)(=O)N1CC2(CCN(C(=O)[C@H](COCc3cc(C(F)(F)F)cc(C(F)(F)F)c3)NC(=O)c3ccc(Cl)c(Cl)c3)CC2)c2ccccc21
2 | 63 | CS(=O)(=O)N1CC2(CCN(C(=O)[C@H](CS(=O)(=O)Cc3ccc(Cl)c(Cl)c3)NCc3ccccc3)CC2)c2ccccc21
3 | 163 | COc1ccccc1CNC(COCc1ccccc1)C(=O)N1CCC2(CC1)CN(S(C)(=O)=O)c1ccccc12 (centres undefined)
4 | 33 | CN(C)c1ccc(CNC(COCc2ccccc2)C(=O)N2CCC3(CC2)CN(S(C)(=O)=O)c2ccccc23)cc1 (centres undefined)
5 | 100 | CS(=O)(=O)N1CC2(CCN(C(=O)C(COCc3ccccc3)NCc3ccc(Cl)cc3Cl)CC2)c2ccccc21 (centres undefined)
6 | 260 | CS(=O)(=O)N1CC2(CCN(C(=O)C(COCc3ccccc3)NC(=O)c3ccc(Cl)c(Cl)c3)CC2)c2ccccc21 (centres undefined)
7 | 1.7 | CS(=O)(=O)N1CC2(CCN(C(=O)[C@H](COCc3ccc(Cl)c(Cl)c3)NCc3ccc(Cl)c(Cl)c3)CC2)c2ccccc21
8 | 152 | CS(=O)(=O)N1CC2(CCN(C(=O)C(COCc3ccccc3)NCc3cccc(C#N)c3)CC2)c2ccccc21 (centres undefined)
9 | 120 | CS(=O)(=O)N1CC2(CCN(C(=O)C(COCc3ccccc3)NCc3cccc([N+](=O)[O-])c3)CC2)c2ccccc21 (centres undefined)
10 | 23 | CS(=O)(=O)N1CC2(CCN(C(=O)[C@H](COCc3ccc(Cl)cc3)NCc3ccc(Cl)c(Cl)c3)CC2)c2ccccc21
11 | 6.6 | CS(=O)(=O)N1CC2(CCN(C(=O)[C@H](COCc3ccc(Cl)cc3)NCc3ccccc3)CC2)c2ccccc21
12 | 2000 | CS(=O)(=O)N1CC2(CCN(C(=O)C(N)COCc3ccccc3)CC2)c2ccccc21 (centres undefined)

The next lines start with the compound.

Row | Structure (SMILES) | IC50 [nM]
13 | CS(=O)(=O)N1CC2(CCN(C(=O)[C@H](COCc3ccccc3)NCc3ccc(Cl)c(Cl)c3)CC2)c2ccccc21 | 18
14 | CS(=O)(=O)N1CC2(CCN(C(=O)C(COCc3ccccc3)NCc3ccccc3Cl)CC2)c2ccccc21 (centres undefined) | 542
15 | CS(=O)(=O)N1CC2(CCN(C(=O)C(COCc3ccccc3)NS(=O)(=O)c3ccc(Cl)c(Cl)c3)CC2)c2ccccc21 (centres undefined) | 88
16 | CS(=O)(=O)N1CC2(CCN(C(=O)C(COCc3ccccc3)NCc3c(Cl)cccc3Cl)CC2)c2ccccc21 (centres undefined) | 895
17 | Cc1cccc(CNC(COCc2ccccc2)C(=O)N2CCC3(CC2)CN(S(C)(=O)=O)c2ccccc23)c1 (centres undefined) | 55
18 | CS(=O)(=O)N1CC2(CCN(C(=O)[C@H](COCc3ccccc3Cl)NCc3ccc(Cl)c(Cl)c3)CC2)c2ccccc21 | 34
19 | CS(=O)(=O)N1CC2(CCN(C(=O)[C@@H](COCc3ccccc3)NCc3ccc(Cl)c(Cl)c3)CC2)c2ccccc21 | 42
20 | CS(=O)(=O)N1CC2(CCN(C(=O)C(COCc3ccccc3)NCc3cccc(Cl)c3)CC2)c2ccccc21 (centres undefined) | 58
21 | CS(=O)(=O)N1CC2(CCN(C(=O)C(COCc3ccccc3)NCc3ccc(Cl)cc3)CC2)c2ccccc21 (centres undefined) | 27
22 | CS(=O)(=O)N1CC2(CCN(C(=O)C(CCc3ccc(Cl)c(Cl)c3)NCc3ccccc3)CC2)c2ccccc21 (centres undefined) | 455
23 | CS(=O)(=O)N1CC2(CCN(C(=O)[C@H](COCc3ccccc3Cl)NCc3ccccc3)CC2)c2ccccc21 | 36
24 | CS(=O)(=O)N1CC2(CCN(C(=O)C(COCc3ccccc3)NCc3cccc(Br)c3)CC2)c2ccccc21 (centres undefined) | 60
25 | CS(=O)(=O)N1CC2(CCN(C(=O)[C@H](COCc3cccc(Cl)c3)NCc3ccc(Cl)c(Cl)c3)CC2)c2ccccc21 | 11
26 | COc1ccc(CNC(COCc2ccccc2)C(=O)N2CCC3(CC2)CN(S(C)(=O)=O)c2ccccc23)cc1 (centres undefined) | 57
27 | CS(=O)(=O)N1CC2(CCN(C(=O)C(COCc3ccccc3)NCc3ccc(Cl)c(Cl)c3)CC2)c2ccccc21 (centres undefined) | 12
28 | CS(=O)(=O)N1CC2(CCN(C(=O)[C@H](CSCc3ccc(Cl)c(Cl)c3)NCc3ccccc3)CC2)c2ccccc21 | 13
29 | CS(=O)(=O)N1CC2(CCN(C(=O)[C@H](COCc3cccc(Cl)c3)NCc3ccccc3)CC2)c2ccccc21 | 7.7
30 | CS(=O)(=O)N1CC2(CCN(C(=O)C(COCc3ccccc3)NCc3cccc(F)c3)CC2)c2ccccc21 (centres undefined) | 157
31 | COc1cccc(CNC(COCc2ccccc2)C(=O)N2CCC3(CC2)CN(S(C)(=O)=O)c2ccccc23)c1 (centres undefined) | 71
32 | CS(=O)(=O)N1CC2(CCN(C(=O)C(CNCc3ccc(Cl)c(Cl)c3)NCc3ccccc3)CC2)c2ccccc21 (centres undefined) | 24
33 | CS(=O)(=O)N1CC2(CCN(C[C@H](COCc3ccc(Cl)c(Cl)c3)NCc3ccccc3)CC2)c2ccccc21 | 170
34 | CS(=O)(=O)N1CC2(CCN(C(=O)C(CCCc3ccc(Cl)c(Cl)c3)NCc3ccccc3)CC2)c2ccccc21 (centres undefined) | 3.3
35 | CS(=O)(=O)N1CC2(CCN(C(=O)C(COCc3ccccc3)NCc3cc(Cl)cc(Cl)c3)CC2)c2ccccc21 (centres undefined) | 79
36 | CS(=O)(=O)N1CC2(CCN(C(=O)C(COCc3ccccc3)NC(=O)Cc3ccc(Cl)c(Cl)c3)CC2)c2ccccc21 (centres undefined) | 43
37 | CN(Cc1ccc(Cl)c(Cl)c1)CC(NCc1ccccc1)C(=O)N1CCC2(CC1)CN(S(C)(=O)=O)c1ccccc12 (centres undefined) | 54
38 | CS(=O)(=O)N1CC2(CCN(C(=O)C(COCc3ccccc3)NCc3cccc(Cl)c3Cl)CC2)c2ccccc21 (centres undefined) | 153
39 | CS(=O)(=O)N1CC2(CCN(C(=O)C(COCc3ccccc3)NCc3ccccc3)CC2)c2ccccc21 (centres undefined) | 80

Reference: ChEMBL document CHEMBL1130886, “Serine derived NK1 antagonists. 1: The effect of modifications to the serine substituents” (Bioorg Med Chem Lett, 1998)
